Measurements published in patent US10517889B2, “Modulators of SMAD7 expression” (Ionis Pharmaceuticals, Inc., priority 2017, dated 2019).
Strand notation (5' to 3'): a small letter for the sugar, then the base; units joined by * are phosphorothioate-linked, units joined directly phosphodiester-linked; [ ] holds rarer units or linkages, { } end groups; capitals alone tell only the bases. e = 2'-O-(2-methoxyethyl) (MOE); [5mC] = 5-methylcytosine; d = 2'-deoxy (DNA)

System: human SMAD7 mRNA
Assay: Antisense inhibition of human SMAD7 mRNA expression in Hep3B cells by 5-10-5 MOE gapmers, single concentration, electroporation, RT-PCR (Example 1, Study 1 and 2)
Format: cell-based
Settings: Study 2, electroporation with 15,000 nM antisense oligonucleotide, 5-10-5 MOE gapmers targeting SEQ ID NO: 1 and 2
Summary of the method: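 Readout is percent SMAD7 mRNA inhibition versus untreated cells, measured by qRT-PCR (RTS5062) and corrected for total RNA by RIBOGREEN. Oligonucleotide, 5,000 nM or 15,000 nM, was delivered by electroporation into Hep3B cells at 20,000 per well. RNA was collected about 24 h later.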

Substance	% inhibition of SMAD7 mRNA expression [%]	% Inhibition [%]
771516 (antisense eG*eA*eG*eG*eA*dA*dA*dA*dT*dA*dT*dT*dA*dG*d[5mC]*eA*eG*e[5mC]*eA*eA) [compound 771516]	8	
771879 (antisense eA*eG*eG*eA*e[5mC]*d[5mC]*d[5mC]*dA*dA*dA*dG*dG*d[5mC]*dA*dG*eA*e[5mC]*e[5mC]*e[5mC]*eT) [compound 771879]		23
771751 (antisense eT*eG*eG*e[5mC]*e[5mC]*dA*dT*dG*d[5mC]*dT*dG*dG*d[5mC]*dA*dA*eA*eT*eA*eG*eG) [compound 771751]		25
771383 (antisense eT*eA*e[5mC]*eA*e[5mC]*dA*dA*dA*dT*dA*dA*dA*dA*dA*d[5mC]*eA*e[5mC]*e[5mC]*eA*eA) [compound 771383]		0
771628 (antisense e[5mC]*e[5mC]*eA*eG*eG*dG*dA*d[5mC]*dA*dT*d[5mC]*d[5mC]*d[5mC]*d[5mC]*dG*e[5mC]*eT*eT*eG*e[5mC]) [compound 771628]	12	
771391 (antisense eT*e[5mC]*e[5mC]*eG*eG*d[5mC]*dT*dG*d[5mC]*d[5mC]*d[5mC]*d[5mC]*dA*d[5mC]*d[5mC]*e[5mC]*e[5mC]*eG*e[5mC]*eG) [compound 771391]		16
771353 (antisense eT*eT*e[5mC]*e[5mC]*eA*dT*d[5mC]*d[5mC]*dA*dA*d[5mC]*dT*d[5mC]*dT*d[5mC]*eT*eT*eT*eG*e[5mC]) [compound 771353]		0
771740 (antisense eG*e[5mC]*e[5mC]*eA*e[5mC]*dT*d[5mC]*d[5mC]*dT*dG*dA*d[5mC]*dT*d[5mC]*dA*e[5mC]*eG*e[5mC]*eA*eA) [compound 771740]		20
771934 (antisense e[5mC]*eT*eG*eG*eA*dA*dA*dG*dG*dA*dA*dG*dA*d[5mC]*dT*e[5mC]*eG*eA*eG*eG) [compound 771934]		15
771550 (antisense eT*eG*e[5mC]*eT*eT*d[5mC]*d[5mC]*d[5mC]*d[5mC]*dT*d[5mC]*dT*dT*d[5mC]*d[5mC]*eT*eA*eT*e[5mC]*eA) [compound 771550]	4	
771679 (antisense eG*e[5mC]*eA*eT*e[5mC]*dT*dT*dT*dT*d[5mC]*dT*dT*dT*dA*dT*eT*eT*eT*eT*e[5mC]) [compound 771679]	0	
771351 (antisense e[5mC]*eT*e[5mC]*eT*e[5mC]*dT*dT*dT*dG*d[5mC]*d[5mC]*d[5mC]*d[5mC]*dA*dA*eA*eA*e[5mC]*eT*e[5mC]) [compound 771351]		11
771767 (antisense e[5mC]*e[5mC]*eT*eA*eA*dA*dG*dG*dT*dG*dG*dG*dT*d[5mC]*d[5mC]*eA*eT*eT*e[5mC]*e[5mC]) [compound 771767]		16
771758 (antisense eA*eT*eT*eA*e[5mC]*d[5mC]*dA*dG*dT*d[5mC]*d[5mC]*d[5mC]*d[5mC]*d[5mC]*dA*eT*eT*eA*e[5mC]*eG) [compound 771758]		0
771511 (antisense eT*eT*eT*eG*eA*dA*dG*dT*dG*dT*dG*dG*d[5mC]*d[5mC]*dT*eG*e[5mC]*eT*e[5mC]*eA) [compound 771511]	31	
771695 (antisense eT*e[5mC]*eT*e[5mC]*e[5mC]*d[5mC]*dA*dG*dG*dA*dG*dG*dG*dT*dA*eT*eG*e[5mC]*eA*e[5mC]) [compound 771695]		22
771916 (antisense e[5mC]*e[5mC]*eT*eT*e[5mC]*dT*dT*dA*dA*dA*dT*dT*dT*dT*dT*eA*eA*eT*eT*eT) [compound 771916]		0
771415 (eT*eG*e[5mC]*eG*e[5mC]*dT*d[5mC]*dG*dG*d[5mC]*dT*dG*dT*d[5mC]*d[5mC]*eG*eT*e[5mC]*eG*e[5mC]; antisense) [compound 771415]		36
771851 (antisense eG*e[5mC]*eT*eT*eT*dG*dA*dA*dA*dA*d[5mC]*dA*dT*d[5mC]*d[5mC]*e[5mC]*eA*e[5mC]*eT*eT) [compound 771851]		43
771423 (eG*e[5mC]*eA*eG*e[5mC]*dA*dT*d[5mC]*d[5mC]*dA*dG*d[5mC]*d[5mC]*d[5mC]*dT*eG*e[5mC]*e[5mC]*e[5mC]*eG; antisense) [compound 771423]		39
771377 (antisense eT*eA*eA*eG*e[5mC]*dA*d[5mC]*dG*d[5mC]*dT*d[5mC]*dT*dA*dA*dA*e[5mC]*eA*eG*e[5mC]*eA) [compound 771377]		0
771540 (antisense eT*e[5mC]*eA*eT*eA*dA*dG*d[5mC]*dT*dA*dT*dT*dT*d[5mC]*dT*e[5mC]*eA*eA*eA*eG) [compound 771540]	0	
771385 (antisense e[5mC]*eA*eG*eT*e[5mC]*dT*dG*d[5mC]*dT*dG*dT*dG*dG*dA*dT*eT*eT*eG*eA*eA) [compound 771385]		25

Same assay, conditions: electroporation with 15,000 nM antisense oligonucleotide (Study 2), 5-10-5 MOE gapmers targeting SEQ ID NO: 1 and 2

Substance	% Inhibition of SMAD7 mRNA [%]
771928 (antisense e[5mC]*e[5mC]*e[5mC]*e[5mC]*eA*dT*dT*dG*d[5mC]*d[5mC]*dA*d[5mC]*dT*dA*d[5mC]*eA*eG*eA*eG*eA) [compound 771928]	27
771848 (antisense e[5mC]*e[5mC]*eA*e[5mC]*eA*d[5mC]*dA*dA*d[5mC]*d[5mC]*dA*dA*dA*dG*d[5mC]*eA*eG*eA*eA*eG) [compound 771848]	47
771425 (e[5mC]*e[5mC]*eT*eT*eG*d[5mC]*d[5mC]*d[5mC]*dA*dG*dG*d[5mC]*dA*dG*d[5mC]*eA*eT*e[5mC]*e[5mC]*eA; antisense) [compound 771425]	15
771792 (antisense eA*eG*e[5mC]*eA*e[5mC]*dA*d[5mC]*d[5mC]*d[5mC]*d[5mC]*dA*d[5mC]*d[5mC]*d[5mC]*d[5mC]*e[5mC]*eA*e[5mC]*e[5mC]*eT) [compound 771792]	33

Same assay, conditions: electroporation, 5,000 nM, approximately 24 hours, relative to untreated control cells, gapmers targeting SEQ ID NO: 1 and 2

Substance	% inhibition of SMAD7 mRNA expression [%]
771851 (antisense eG*e[5mC]*eT*eT*eT*dG*dA*dA*dA*dA*d[5mC]*dA*dT*d[5mC]*d[5mC]*e[5mC]*eA*e[5mC]*eT*eT) [compound 771851]	25

Same assay, conditions: electroporation, 15,000 nM antisense oligonucleotide (Study 2), 5-10-5 MOE gapmers targeting SEQ ID NO: 1 and 2

Substance	% inhibition of SMAD7 mRNA expression [%]
771928 (antisense e[5mC]*e[5mC]*e[5mC]*e[5mC]*eA*dT*dT*dG*d[5mC]*d[5mC]*dA*d[5mC]*dT*dA*d[5mC]*eA*eG*eA*eG*eA) [compound 771928]	0
771443 (eG*e[5mC]*e[5mC]*eT*e[5mC]*dT*dT*dG*dA*d[5mC]*dT*dT*d[5mC]*d[5mC]*dG*eA*eG*eG*eA*eA; antisense) [compound 771443]	30
771513 (antisense eA*eG*e[5mC]*eA*eA*dA*dG*dT*dA*dG*dT*dT*dT*dG*dA*eA*eG*eT*eG*eT) [compound 771513]	34
771499 (antisense eG*e[5mC]*eT*eA*e[5mC]*d[5mC]*dG*dG*d[5mC]*dT*dG*dT*dT*dG*dA*eA*eG*eA*eT*eG) [compound 771499]	1
771490 (antisense e[5mC]*eT*eT*e[5mC]*eA*d[5mC]*dA*dA*dA*dG*d[5mC]*dT*dG*dA*dT*e[5mC]*eT*eG*e[5mC]*eA) [compound 771490]	44
771826 (antisense e[5mC]*eA*e[5mC]*e[5mC]*eA*dT*d[5mC]*d[5mC]*dT*dG*dG*dT*dT*d[5mC]*dG*e[5mC]*eA*eG*eT*e[5mC]) [compound 771826]	31
771411 (e[5mC]*e[5mC]*eT*eT*e[5mC]*dT*d[5mC]*d[5mC]*d[5mC]*d[5mC]*dG*d[5mC]*dA*dG*d[5mC]*eT*e[5mC]*eG*e[5mC]*e[5mC]; antisense) [compound 771411]	33
771810 (antisense eG*eG*e[5mC]*eA*e[5mC]*dT*dG*d[5mC]*dA*dG*dA*dA*dG*dA*dG*eG*e[5mC]*eG*eG*eG) [compound 771810]	46
771848 (antisense e[5mC]*e[5mC]*eA*e[5mC]*eA*d[5mC]*dA*dA*d[5mC]*d[5mC]*dA*dA*dA*dG*d[5mC]*eA*eG*eA*eA*eG) [compound 771848]	36
771425 (e[5mC]*e[5mC]*eT*eT*eG*d[5mC]*d[5mC]*d[5mC]*dA*dG*dG*d[5mC]*dA*dG*d[5mC]*eA*eT*e[5mC]*e[5mC]*eA; antisense) [compound 771425]	1
771792 (antisense eA*eG*e[5mC]*eA*e[5mC]*dA*d[5mC]*d[5mC]*d[5mC]*d[5mC]*dA*d[5mC]*d[5mC]*d[5mC]*d[5mC]*e[5mC]*eA*e[5mC]*e[5mC]*eT) [compound 771792]	2

Same assay, conditions: electroporation, 15,000 nM, approximately 24 hours, relative to untreated control cells, gapmers targeting SEQ ID NO: 1 and 2

Substance	% inhibition of SMAD7 mRNA expression [%]
771805 (antisense eG*eA*eT*eT*eA*dT*dA*dT*dA*dG*dG*dT*dA*dT*dT*eT*eT*eT*eG*eA) [compound 771805]	0
771541 (antisense eT*e[5mC]*eT*eT*eT*dT*d[5mC]*dA*dT*dA*dA*dG*d[5mC]*dT*dA*eT*eT*eT*e[5mC]*eT) [compound 771541]	35
771677 (antisense eT*eT*eT*e[5mC]*eT*dT*dG*dT*dT*dT*dA*dT*dA*d[5mC]*dA*e[5mC]*eA*eT*eT*eG) [compound 771677]	21
771565 (antisense e[5mC]*eT*eG*e[5mC]*e[5mC]*dG*d[5mC]*dT*d[5mC]*d[5mC]*dT*dG*d[5mC]*dA*d[5mC]*eA*e[5mC]*eG*e[5mC]*eG) [compound 771565]	55
771605 (antisense eG*eG*e[5mC]*eT*eG*d[5mC]*d[5mC]*d[5mC]*d[5mC]*dG*dG*d[5mC]*dA*dG*d[5mC]*e[5mC]*e[5mC]*eT*eT*eG) [compound 771605]	26
771589 (antisense eT*eG*eG*eA*e[5mC]*dA*dG*dG*d[5mC]*d[5mC]*d[5mC]*dG*dT*dG*dT*e[5mC]*e[5mC]*eT*eT*eG) [compound 771589]	51
771629 (antisense eA*eG*e[5mC]*eA*eT*dG*dT*d[5mC]*d[5mC]*d[5mC]*dT*d[5mC]*d[5mC]*d[5mC]*dA*eG*eG*eG*eA*e[5mC]) [compound 771629]	25
771438 (e[5mC]*e[5mC]*eA*e[5mC]*eG*dG*d[5mC]*d[5mC]*dT*dG*dG*dA*dG*d[5mC]*dA*eG*e[5mC]*eA*eG*e[5mC]; antisense) [compound 771438]	26
771502 (antisense e[5mC]*eG*e[5mC]*eT*e[5mC]*dT*dG*dT*d[5mC]*d[5mC]*d[5mC]*d[5mC]*dT*d[5mC]*d[5mC]*eG*e[5mC]*eA*e[5mC]*eG) [compound 771502]	48
